Measurements: patent publication US20230181633A1, “METHODS OF TREATING CANCER USING A COMBINATION OF TUMOR MEMBRANE VESICLES AND METFORMIN” (METACLIPSE THERAPEUTICS CORPORATION, priority 2019, published 2023)

Key:
[1] = test system: SCCVII cells; assay: SCCVII squamous cell tumor challenge, tumor growth over time; format: in vivo, C3H/Hej mice
Procedure: FIGS. 1(A-C) is a set of graphs showing tumor growth over time. […] Tumor growth was measured over time. […] Tumors were palpable at day 3, which is when treatment with PBS, MET alone, TMV alone, or TMV + MET was initiated. The subsequent treatments were employed at days […]. […] Tumors were palpable at day 3, treatment of PBS control, MET alone, TMV alone, or TMV + MET was applied at days 10, 17, 24, 31, and 40. Tumor growth was measured over time. n=5 per group, two-way ANOVA with Tukey’s multiple comparison for statistical significance. For FIGS. 1(A-C), filled circle is PBS treatment group, filled square is MET alone treatment group, filled grey triangle is TMV alone treatment group, upside down triangle is MET + TMV treatment group. *p<0.05, **p<0.01, ***p<0.001.
In the same model (SCCVII), the TMV and MET treatment were delayed and given at Day 10 when the tumors were established (about 50 mm^2) (FIG. 1C).

[2] = test system: immune cell subtypes in blood; assay: Immune cell subtypes in blood of 4T1-challenged mice; format: in vivo, mouse
Procedure: FIGS. 2(A-C) is a set of graphs showing percentages of T-cell subtypes in the blood of mice with 4T1 tumor. After 4T1 tumor challenge and treatment with water, TMV alone, MET alone, or TMV+MET, mouse blood samples were analyzed for percentage of CD3+ (FIG. 2A), CD4+ (FIG. 2B), and CD8+ (FIG. 2C) T-cells, in relation to CD45+ T cells. Filled circle is water treatment group, filled square is MET treatment group, filled grey triangle is TMV treatment group, upside down triangle is TMV + MET treatment group.
FIGS. 3(A-B) is a set of Fluorescence Activated Cell Sorting (FACS) plots showing presence of myeloid-derived suppressor cells (MDSCs) (FIG. 3A) and CD3+ cells (FIG. 3B) in the blood of 4T1 tumor-challenged mice.
FIG. 4 is a set of graphs showing amounts of MDSCs (top panel) and CD3+ T cells (bottom panel) in the blood of 4T1 tumor-challenged mice treated with water, TMV alone, MET alone, or TMV+MET. Filled circle is water treatment group, filled square is MET treatment group, filled grey triangle is TMV treatment group, upside down triangle is TMV + MET treatment group. **p<0.01.
The 4T1-challenged mice were further analyzed for immunological effects upon administration of TMV, MET, or both. Blood samples were obtained from mice, and samples were subjected to analysis to determine presence of immune cell subtypes.

[3] = test system: 4T1 tumor cells; assay: Lung metastasis in 4T1-challenged mice; format: in vivo, mouse
Procedure: FIGS. 6(A-B) is a set of graphs showing the amount of 4T1 tumor cells (FIG. 6A) and metastatic clones (FIG. 6B) obtained in the lungs of 4T1 tumor-challenged mice treated with water, TMV alone, MET alone, or TMV + MET. **p<0.01, ***p<0.001,
4T1-challenged mice were also analyzed for their metastatic potential. Upon sacrificing the mice, the lungs were analyzed for tumor colony forming units […] and overall total tumor cells (FIG. 6B).

[4] = test system: oral squamous cell carcinoma MOC2 cells; assay: MOC2 head and neck cancer model, tumor growth; format: in vivo, C57BL/6J mice; conditions: MOC2-challenged mice, treatment from Day 3 (FIG. 9A, 9B)
Procedure: C57BL/6J mice were inoculated with 500,000 oral squamous cell carcinoma MOC2 cells s.c. in the hind flank. Tumors were palpable at day 3 post challenge. PBS, MET alone, TMV alone, or a combination of TMV + MET was employed at days 3, 8, 13, 18, and 25. Tumor growth was measured over time. […] Filled circle is PBS treatment group, filled square is MET alone treatment group, filled grey triangle is TMV alone treatment group, upside down triangle is MET + TMV treatment group. n=5 per group, two-way ANOVA with Tukey’s multiple comparison for statistical significance. *p<0.05, **p<0.01.
In the murine head and neck MOC2 cancer model, the TMV vaccine generated from MOC2 tumors was administered at Day 3, while MET was started at Day 3 and continued every other day until end point.

[5] = test system: MOC2 cells; assay: MOC2 spontaneous lung metastasis; format: in vivo, C57BL/6J mice; conditions: lungs harvested after 25 days of tumor growth (FIG. 10)
Text: C57BL/6J mice were inoculated with 500,000 MOC 2 cells s.c. in the hind flank. […] PBS, MET alone, TMV alone, or a combination of TMV + MET was employed at days 3, 8, 13, 18, and 25. Lungs were harvested and dispersed into single cell suspension after 25 days of tumor growth. Metastatic tumor cells were selected using G418 in vitro for 11-14 days and metastatic cells were quantified using a Nexelcom T4 cell counter.
In the murine head and neck MOC2 cancer model, the TMV vaccine generated from MOC2 tumors was administered at Day 3, while MET was started at Day 3 and continued every other day until end point. […] The lungs from these MOC2-challenged mice were harvested after 25 days of tumor growth and the number of metastatic cells was quantified after suspending the lungs into a single cell suspension (FIG. 10).

[6] = test system: 4T1 mouse breast cancer cells; assay: Survival after surgical resection of 4T1 tumors; format: in vivo
Procedure: FIG. 8 is a graph showing survival of mice treated with PBS, TMV alone, MET alone, or TMV+MET after surgical resection of tumors. Mice were challenged 10 days before surgery with 4T1 tumor cells. After tumor establishment, tumors were resected on Day 0. Beginning on Day 5, 50 mg/kg metformin was administered. On Days 5 and 12, 4T1-derived TMVs were administered. […] Solid line is PBS treatment group, dashed line is MET alone, dotted line is TMV alone, dash and dot line is TMV and MET treatment.
Mice were divided into four groups of five mice per group, wherein each group was to be treated with either a PBS control, metformin (MET) alone, 4T1-derived TMV (as described in Example 1) or TMV+MET. Each mouse was challenged with 4T1 mouse breast cancer cells by subcutaneous injection and tumors were later surgically resected (Day 0). On Day 5, mice in the MET and TMV+MET groups were administered 50 mg/kg metformin in drinking water daily until Day 20. On Days 5 and 12, mice in the TMV and TMV+MET groups were administered a dose of TMVs formed from 4T1 cells. Mice were then analyzed for survival (FIG. 8).

Structure (SMILES): CN(C)C(=N)NC(=N)N [MET, 3-(diaminomethylidene)-1,1-dimethylguanidine]
- tumor growth, established tumors ([1]; SCCVII, treatment delayed to Day 10, tumors about 50 mm^2 (FIG. 1C)): did not have a significant decrease in growth
- tumor size (in words) ([1]; SCCVII-challenged mice, treatment from day 3 (FIG. 1B)): reduced tumor size
- amount of myeloid derived suppressor cells (MDSC) in blood samples ([2]; 4T1-challenged mice (FIG. 3A, FIG. 4 upper panel)): decreased
- amount of CD3+ T cells in the blood ([2]; 4T1-challenged mice, by week 2, vs PBS control (FIG. 2A)): increased
- amount of CD4+ T cells in the blood ([2]; 4T1-challenged mice, by week 2, vs PBS control (FIG. 2B)): increased
- amount of CD8+ T cells in the blood ([2]; 4T1-challenged mice, by week 2, vs PBS control (FIG. 2C)): increased
- lung metastasis: tumor colony forming units ([3]; lungs of 4T1-challenged mice at sacrifice (FIG. 6A)): not MET alone significantly reduced
- lung metastasis: overall total tumor cells ([3]; lungs of 4T1-challenged mice at sacrifice (FIG. 6B)): not MET alone significantly reduced
- MOC2 tumor growth / tumor area [4]: no reduction in tumor growth
- number of metastatic MOC2 cells per lung [5]: did not have a significant reduction
- mouse survival post-surgery (in words) ([6]; 4T1 tumors resected Day 0 (FIG. 8)): increased mouse survival
- survival ([6]; at day 60 after resection of 4T1 tumors, 50 mg/kg metformin from Day 5 (FIG. 8)): 0%
